Activity calls are given as the source filed them.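 The calls were made as follows: active = fitted half-maximal concentration for change in GFP expression of 33 µM or less; inactive = the rest.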
Test: potency of AGP1-GFP expression modulators in yeast, dose response, cell-based, flow cytometry, S. cerevisiae, MLPCN hits (AID 2743)
Conditions: S. cerevisiae AGP1-GFP strain, flow cytometry GFP, 3 h; at 33 µM (top of the series)

Row | Compound | GFP fluorescence (kMESF)
1 | Cc1ccc(N=c2ssnc2Cl)cc1 | 43.2 kMESF (inactive)
2 | O=C1c2cccc3c([N+](=O)[O-])ccc(c23)C(=O)N1c1ccccn1 | 35.2 kMESF (inactive)
3 | CCCCOc1ccc(C(=O)NNC(=S)NC(=O)CC)cc1 | 39.6 kMESF (inactive)
4 | Cc1ccc(NC(=O)c2nc(S(=O)(=O)Cc3ccccc3)ncc2Cl)cc1 | 45.8 kMESF (inactive)
5 | CC(C)[C@]1(c2ccc(Cl)cc2)ON(c2ccccc2C(F)(F)F)C1=O | 39.3 kMESF (inactive)
6 | CC(=O)n1cc(C(C[N+](=O)[O-])SCCN)c2ccccc21 (stereo unspecified) | 28.8 kMESF (inactive)
7 | COc1ccc(-c2cc3cc(C(=O)O)ccn3c2C(=O)c2ccccc2)cc1 | 43.2 kMESF (inactive)
8 | CC(=O)Oc1oc(-c2ccccc2)nc1C=Nc1ccc(N(C)C)cc1 | 43.2 kMESF (inactive)
9 | COc1ccccc1-c1nc2s/c(=C\c3cccs3)c(=O)n2n1 | 27.7 kMESF (inactive)
10 | Cc1ccc(C(=O)NNC(=S)NC(=O)COc2ccccc2)cc1 | 39.8 kMESF (inactive)
11 | COc1ccc(C=C2C(=O)c3ccccc3C2=O)cc1O | 34.7 kMESF (inactive)
12 | Cn1ncc2c(O/N=C(\N)c3ccc(C(C)(C)C)cc3)ncnc21 | 24.7 kMESF (inactive)
13 | O=C(Nc1nnc(-c2ccc(F)cc2)o1)c1cc(Cl)sc1Cl | 40.6 kMESF (inactive)
14 | O=[N+]([O-])c1c(Nc2ccccn2)cc(Cl)c2nonc12 | 26.8 kMESF (inactive)
15 | O=C(Nc1nc(-c2ccccn2)cs1)c1cc2ccccc2o1 | 38.7 kMESF (inactive)
16 | O=C(NC(=S)NNC(=O)[C@H]1C[C@@H]1c1ccccc1)c1cccc(F)c1 | 30.4 kMESF (inactive)
17 | COc1cc(NC(=O)c2ccccc2[N+](=O)[O-])ccc1NC(=O)c1cc2ccccc2o1 | 44.3 kMESF (inactive)
18 | O=C(O)c1ccc(COc2ccccc2C=C2C(=O)c3ccccc3C2=O)cc1 | 32.6 kMESF (inactive)
19 | CCc1cc(C(=O)Nc2nc(-c3ccccn3)cs2)sc1C | 29.2 kMESF (inactive)
20 | COc1cc(/C=C2\C(=O)ON=C2c2ccccc2)cc(Br)c1O | 28.7 kMESF (inactive)
21 | Cc1ccc(C(=O)Sc2cccccc2=O)cc1 | 33 kMESF (inactive)
22 | Cc1cc(C)c2c(c1)/C(=C/C(=O)c1ccc(Br)s1)C(=O)N2 | 42.9 kMESF (inactive)

Row | Compound | GFP fluorescence (kMESF)
23 | Cc1cccc(N=Nc2ccc(O)c3ncccc23)c1 | 40.1 kMESF (inactive)
24 | COC(=O)/C(=C/c1c[nH]c2ccccc12)[N+](=O)[O-] | 39.1 kMESF (inactive)
25 | CCc1ccc(OCC(=O)NNC(=S)NC(=O)C2CC2)c(Br)c1 | 45.2 kMESF (inactive)
26 | O=C(/C=C/c1ccccn1)c1cc(Br)ccc1O | 37.3 kMESF (inactive)
27 | COc1cc(NC(=O)c2ccc(C)cc2)ccc1NC(=O)c1cc2ccccc2o1 | 43.8 kMESF (inactive)
28 | O=C(CS(=O)c1ccccc1[N+](=O)[O-])Oc1ccc(Br)cc1 (stereo unspecified) | 42.8 kMESF (inactive)
29 | COc1ccc(N2C(=O)C(Cl)=C(Oc3cccc(OC)c3)C2=O)cc1 | 38.8 kMESF (inactive)
30 | COc1ccc(N=Cc2nc(-c3ccccc3)oc2OC(C)=O)cc1 | 35 kMESF (inactive)
31 | COc1cccc(/C=C2\SC(=S)N(CCCC(=O)Nc3ccc(C(=O)O)cc3)C2=O)c1 | 34.8 kMESF (inactive)
32 | O=c1[nH]c(-c2ccccn2)nc(C(F)(F)F)c1Br | 36.9 kMESF (inactive)
33 | COc1ccc(N2C(=O)CC(Sc3ncn[nH]3)C2=O)c(OC)c1 (stereo unspecified) | 36.2 kMESF (inactive)
34 | Cc1cc(C)nc(S/C=C/C(=O)c2ccccc2)n1 | 44.8 kMESF (inactive)
35 | Cc1ccccc1[C@]1(C)ON(c2ccccc2C(F)(F)F)C1=O | 34.6 kMESF (inactive)
36 | CC(=O)Oc1ccc(/C=c2\sc3ncnn3c2=O)cc1 | 36.7 kMESF (inactive)
37 | CCOC(=O)c1c(C)oc2c1c(C(c1cccnc1)N1CCOCC1)c(O)c1ccccc12 (stereo unspecified) | 29.9 kMESF (inactive)
38 | O=c1[nH]c(-c2ccc(Cl)cc2)cs1 | 39.4 kMESF (inactive)
39 | O=[N+]([O-])c1ccc(-c2cn3nc(-c4ccccc4)c(-c4ccccc4)nc3n2)cc1 | 39.6 kMESF (inactive)
40 | CCOc1ccc(NC2=C(Cl)C(=O)N(Cc3ccccc3)C2=O)cc1 | 41.3 kMESF (inactive)
41 | COc1cc(/C=C2/C(=O)ON=C2c2ccccc2)ccc1O | 25 kMESF (inactive)
42 | Cc1cccc(NC(c2ccc(C)s2)c2ccc3ccc(C)nc3c2O)n1 (stereo unspecified) | 32.5 kMESF (inactive)
43 | Cc1cc(C)c(C)c(S(=O)(=O)ON2C(=O)c3ccccc3C2=O)c1C | 40 kMESF (inactive)
44 | N/C(=N\OC(=O)c1cccc(Br)c1)c1ccccc1 | 21.7 kMESF (inactive)

Row | Compound | GFP fluorescence (kMESF)
45 | N/C(Cc1ccc(Cl)cc1Cl)=N\OC(=O)c1ccccc1 | 29.1 kMESF (inactive)
46 | CCC(C)/C(C)=N/NC(=O)c1ccc(COc2ccc(Cl)c(C)c2)cc1 (stereo unspecified) | 41.2 kMESF (inactive)
47 | O=C1C=C(c2ccccc2)C(=O)N1Nc1ccccc1 | 40.8 kMESF (inactive)
48 | O=C1N(c2ccccc2C(F)(F)F)O[C@@]1(c1ccccc1)C1CCCCC1 | 36.2 kMESF (inactive)
49 | CCc1nc2ccccc2c(=O)n1NC(=O)c1c(O)c2ccccc2n(CC)c1=O | 18.7 kMESF (inactive)
50 | CCc1nc2ccccc2c(=O)n1NC(=O)c1c(O)c2cccc3c2n(c1=O)CCC3 | 18.3 kMESF (inactive)
51 | O=C(Nc1ccccc1)c1nnsc1S(=O)(=O)c1ccc(Cl)cc1 | 38.4 kMESF (inactive)
52 | CN(C)c1ccc(/C=C/c2cc[n+](C)cc2)cc1 | 30 kMESF (inactive)
53 | Cc1ccc(NC(=O)c2ccc(Cl)c(N3C(=O)C=CC3=O)c2)cc1 | 27.1 kMESF (inactive)
54 | COc1cccc2sc(Nc3nc(-c4ccccn4)cs3)nc12 | 34.7 kMESF (inactive)
55 | CC1=NNC(=O)/C1=C\c1cn(-c2ccccc2)nc1-c1ccccc1 | 40.4 kMESF (inactive)
56 | O=C(Nc1ccc(Cl)cc1)ON=C1CCCC1 | 28 kMESF (inactive)
57 | COc1cc(/C=C/c2ccc3c(Br)cc(Br)c(O)c3n2)ccc1O | 27.7 kMESF (inactive)
58 | O=C(Nc1ccc(O)cc1)C1CCCN1S(=O)(=O)c1ccc(F)cc1 (stereo unspecified) | 42.4 kMESF (inactive)
59 | CC1(C)OC(c2ccccc2)=C/C(=C/C=C2C(=O)NC(=S)NC2=O)O1 | 36.6 kMESF (inactive)
60 | CCCc1nnc(NC(=O)c2c(O)c3cccc4c3n(c2=O)CCC4)s1 | 2.53 kMESF (inactive)
61 | C/C(=N\NC(=O)c1cc2ccccc2cc1O)c1ccccn1 | 47.9 kMESF (inactive)
62 | CCCCC(=O)NC(=S)NNC(=O)CCc1ccccc1 | 28.1 kMESF (inactive)
63 | CC(Oc1ccc(Br)cc1)C(=O)Nc1nc(-c2ccccn2)cs1 (stereo unspecified) | 46.5 kMESF (inactive)
64 | Oc1c(C(Nc2cccc(C(F)(F)F)c2)c2ccncc2)ccc2cccnc12 (stereo unspecified) | 30.3 kMESF (inactive)
65 | O=C(Oc1oc(-c2ccco2)nc1C=Nc1ccccc1)c1ccoc1 | 44.7 kMESF (inactive)
66 | Oc1ccc(Br)cc1/C=N/Nc1ccccn1 | 36.6 kMESF (inactive)
